Source: patent US9371295B2, “Compounds for use in the treatment of disorders that are ameliorated by inhibition of HDAC” (IRBM—Science Park S.p.A., priority 2012, dated 2016)

Legend:
[1] = Intrinsic clearance in pooled rat liver microsomes; format: in vitro ADME; details: pH 7.4
Protocol: Assays were performed in presence of 0.5 mg/ml of microsomal protein, with a NADPH-generating system (1 mM NADP, 2.5 mM glucose 6-phosphate and 2 U/ml glucose 6-phosphate dehydrogenase) in 100 mM potassium phosphate buffer containing 3.3 mM MgCl2 (pH 7.4). Tested compounds were stored in 10 mM DMSO solution and incubated at 1 μM final concentration (final DMSO concentration in incubation less than 0.1%). Microsomes and substrates were preincubated at 37° C. for 5 min and then the enzymatic reactions were initiated by the addition of cofactors and incubated at 37° C. for up to 90 min. Incubations were terminated by the addition of an equivalent volume of cold acetonitrile containing I.S. Control incubations, where the substrate was incubated in the same buffer system containing pRLM without the NADPH-generating system, were also run.

K562 cells = assay: Antiproliferative effect on K562 cells (cell number after 5 days); format: cell-based; details: Homo sapiens, 120 h, 5 days culture, average of three experiments
Protocol: The biological activity of the compounds of the present application was evaluated by examining the capacity to modulate the expression of γ-globin genes in the human K562 cell line, which is capable of differentiating in the erythroid manner by expressing genes for γ-globin if treated with modifiers of the biological response that are suitable for the purpose (Bianchi et al, J. Haematol., 113, 4, p. 951-961, 2001). The human K562 cells were cultured in RPMI 1640 medium (Sigma, St Louis, Mo., USA) supplemented with 10% foetal bovine serum (FBS; Analitical de Mori, Milan, Italy), 100 units/mL penicillin and 100 μg/mL streptomycin. Cell growth was determined according to cell number/ml, using a cell counter (Coulter Electronics, Hialeah, Fla., USA). For experiments, K562 cell cultures were initiated at 3×10^4/mL and the chemical inducers at the indicated concentrations added. Following 3-5 days incubation without a medium change erythroid differentiation was determined by staining the cells in a solution containing 0.2% benzidine in 0.5 M glacial acetic acid, 10% H2O2. Benzidine positivity indicates the presence of intracellular Hb.
The erythroid differentiation of K562 cells was investigated following treatment with selected compounds of the invention. The effect on cell proliferation was first determined for all tested molecules by culture of K562 cells in the presence of increasing concentration of the compounds. The cell number per sample was then determined after 3, 4 and 5 days. The IC50 values reported in Table 3 for the antiproliferative effect were calculated from the concentration of the compounds necessary to decrease the cell number to 50% of the values obtained in control untreated K562 cell cultures, after a 5 days culture period. Erythroid differentiation was measured by benzidine staining after 5, 6 and 7 days of cell culture and by quantitative reverse transcriptase polymerase-chain reaction (RT-qPCR) to quantify the expression of γ-globin mRNA. Different concentrations of tested compounds were employed because of their differing antiproliferative effects; accordingly, concentrations were chosen to maximize the erythroid induction effect without extensive reduction of cell viability. In Table 3 the % of benzidine positive cells and the increase in γ-globin mRNA assayed by RT-qPCR after 6 days of culture period are reported.

[2] = Intrinsic clearance in pooled mouse liver microsomes; format: in vitro ADME; details: pH 7.4
[3] = Intrinsic clearance in pooled human liver microsomes; format: in vitro ADME; details: pH 7.4
[4] = Mouse in vivo pharmacokinetics, oral dose; details: plasma
Protocol: Compounds of the invention were evaluated in in vitro and in vivo pharmacokinetic studies.

[5] = system: human γ-globin promoter (EGFP reporter) in K562 cells; assay: HbF activation assay on K562 (EGFP/RFP reporter model system for screening of inducers of fetal hemoglobin); format: cell-based; details: 60 hours
In short: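 K562 cells stably carrying EGFP under the human γ-globin promoter and far-red FP under the β-globin promoter, with the LCR, were seeded at 1000 cells/well. Cells were exposed to compounds (0.25% DMSO final) for 60 h at 37 °C. Fluorescence was read by plate cytometry, normalized to Hoechst nuclei count, which also indicated proliferation or death.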

A microsomal CLint at 1 μM [1] of 33 µL/min/mg, an IC50 (K562 cells) of 0.075 µM and a microsomal CLint at 1 μM [2] of 27 µL/min/mg were found for `CCC(=O)CCCCC[C@H](NC(=O)C1CN(C)C1)c1ncc(-c2cc3ccccc3nc2OC)o1` [Compound 2, (S)-N-(1-(5-(2-methoxyquinolin-3-yl)oxazol-2-yl)-7-oxononyl)-1-methylazetidine-3-carboxamide] in this work. It also gave a microsomal CLint at 1 μM [3] of 13 µL/min/mg, an AUC ([4]; po 20 mg/kg) of 22.4 µM·h and a Cmax ([4]; po 20 mg/kg) of 1.87 µM. The EC50 [5] was 0.1 to 1 µM.

An IC50 (K562 cells) of 0.6 µM and an EC50 [5] greater than 1 µM were found for `CCC(=O)CCCCC[C@H](NC(=O)C(=O)N1CCN(C)CC1)c1ncc(-c2cc3ccccc3nc2OC)o1` [Compound 37, (S)-N-(1-(5-(2-methoxyquinolin-3-yl)oxazol-2-yl)-7-oxononyl)-2-(4-methylpiperazin-1-yl)-2-oxoacetamide] in this work.

An IC50 (K562 cells) of 0.95 µM and an EC50 [5] greater than 1 µM were found for `CCC(=O)CCCCC[C@H](NC(=O)C1(F)CN(C)C1)c1ncc(-c2cc3ccccc3nc2OC)o1` [Compound 67, (S)-3-fluoro-N-(1-(5-(2-methoxyquinolin-3-yl)oxazol-2-yl)-7-oxononyl)-1-methylazetidine-3-carboxamide] in this work.

An IC50 (K562 cells) of 0.25 µM and an EC50 [5] of 0.1 to 1 µM were found for `CCC(=O)CCCCC[C@H](NC(=O)Cn1nc(C)nc1C)c1ncc(-c2cc3ccccc3nc2OC)o1` [Compound 80, (S)-2-(3,5-dimethyl-1H-1,2,4-triazol-1-yl)-N-(1-(5-(2-methoxyquinolin-3-yl)oxazol-2-yl)-7-oxononyl)acetamide] in this work.

An IC50 (K562 cells) greater than 0.4 µM and an EC50 [5] of 0.1 to 1 µM were found for `CCC(=O)CCCCC[C@H](NC(=O)c1cnc(CN2CCCC2)s1)c1ncc(-c2cc3ccccc3nc2OC)o1` [Compound 82, (S)-N-(1-(5-(2-methoxyquinolin-3-yl)oxazol-2-yl)-7-oxononyl)-2-(pyrrolidin-1-ylmethyl)thiazole-5-carboxamide] in this work.

A microsomal CLint at 1 μM [1] of 15 µL/min/mg, an IC50 (K562 cells) of 0.05 µM and a microsomal CLint at 1 μM [2] of 13 µL/min/mg were found for `CCC(=O)CCCCC[C@H](NC(=O)C1CN(C)C1)c1ncc(-c2cc3ccccc3n(C)c2=O)o1` [Compound 92, (S)-1-methyl-N-(1-(5-(1-methyl-2-oxo-1,2-dihydroquinolin-3-yl)oxazol-2-yl)-7-oxononyl)azetidine-3-carboxamide] in this work. It also gave a microsomal CLint at 1 μM [3] of less than 5 µL/min/mg, an AUC ([4]; po 10 mg/kg) of 0.32 µM·h and a Cmax ([4]; po 10 mg/kg) of 0.1 µM. The EC50 [5] was 0.1 to 1 µM.

An IC50 (K562 cells) of 0.041 µM and an EC50 [5] of less than 0.1 µM were found for `CCC(=O)CCCCC[C@H](NC(=O)CCN(C)C)c1ncc(-c2cc3ccccc3n(C)c2=O)o1` [Compound 106, (S)-3-(dimethylamino)-N-(1-(5-(1-methyl-2-oxo-1,2-dihydroquinolin-3-yl)oxazol-2-yl)-7-oxononyl)propanamide] in this work.

An IC50 (K562 cells) of 0.024 µM and an EC50 [5] of less than 0.1 µM were found for `CCC(=O)CCCCC[C@H](NC(=O)C(C)(C)N(C)C)c1ncc(-c2cc3ccccc3n(C)c2=O)o1` [Compound 107, (S)-2-(dimethylamino)-2-methyl-N-(1-(5-(1-methyl-2-oxo-1,2-dihydroquinolin-3-yl)oxazol-2-yl)-7-oxononyl)propanamide] in this work.

An IC50 (K562 cells) greater than 0.05 µM and an EC50 [5] of 0.1 to 1 µM were found for `CCC(=O)CCCCC[C@H](NC(=O)C1CCN(C)CC1)c1ncc(-c2cc3ccccc3n(C)c2=O)o1` [Compound 109, (S)-1-methyl-N-(1-(5-(1-methyl-2-oxo-1,2-dihydroquinolin-3-yl)oxazol-2-yl)-7-oxononyl)piperidine-4-carboxamide] in this work.

An IC50 (K562 cells) of 0.2 µM and an EC50 [5] of 0.1 to 1 µM were found for `CCC(=O)CCCCC[C@H](NC(=O)c1cncs1)c1ncc(-c2cc3ccccc3n(C)c2=O)o1` [Compound 110, (S)-N-(1-(5-(1-methyl-2-oxo-1,2-dihydroquinolin-3-yl)oxazol-2-yl)-7-oxononyl)thiazole-5-carboxamide] in this work.

An IC50 (K562 cells) of 0.047 µM and an EC50 [5] of less than 0.1 µM were found for `CCC(=O)CCCCC[C@H](NC(=O)C1(N(C)C)CCCC1)c1ncc(-c2cc3ccccc3n(C)c2=O)o1` [Compound 111, (S)-1-(dimethylamino)-N-(1-(5-(1-methyl-2-oxo-1,2-dihydroquinolin-3-yl)oxazol-2-yl)-7-oxononyl)cyclopentanecarboxamide] in this work.
